Source: paper PMC9578392, “Safety, Tolerability, and Pharmacokinetics of the Novel Antiviral Agent Ensitrelvir Fumaric Acid, a SARS-CoV-2 3CL Protease Inhibitor, in Healthy Adults” (Antimicrobial Agents and Chemotherapy, 2022)
“Also recorded” adds a separate entry of the source. Read-outs that look alike come from different tables or passages of the source.

Assays:
[1] = Effect of food on pharmacokinetics (cohort C, 250 mg crossover); assay type: in vivo, human; conditions: for Tmax / AUC(0-inf) / AUC(0-t) / Cmax / half-life: human, plasma, oral, 250 mg; for AUC(0-inf): read-out: AUC0-inf, GLS mean; for AUC(0-t): read-out: AUC0-last, GLS mean; for Cmax: read-out: Cmax, GLS mean; for half-life: read-out: t1/2,z, GLS mean (converted)
Protocol: In part 1, Japanese participants were randomized to receive placebo or single dose of ensitrelvir (20, 70, 250, 500, 1,000, and 2,000 mg given to cohorts A, B, C, D, E, and J, respectively), suspended in 0.5% methylcellulose, in the fasted state. Additionally, in cohort C, the effect of food on the pharmacokinetics of ensitrelvir was investigated in a 2-group, 2-period crossover design by administering placebo or ensitrelvir (250 mg) in the fasted or fed (high-fat/high-calorie) state. In part 2, Japanese participants were randomized to receive placebo or multiple doses of ensitrelvir, suspended in 0.5% methylcellulose. The multiple-dose regimens were as follows: once-daily doses of ensitrelvir 375 mg on day 1 and 125 mg on days 2 to 5 (cohort F), or 750 mg on day 1 and 250 mg on days 2 to 6 (cohort G) in the fasted state. White participants were randomized to receive placebo or multiple doses of ensitrelvir. The multiple-dose regimens were as follows: once-daily doses of ensitrelvir 375 mg on day 1 and 125 mg on days 2 to 5 (cohort H). Each cohort included 11 participants. In cohort G, the effect of ensitrelvir on the pharmacokinetics of midazolam (syrup) was evaluated in an open label self-controlled crossover design. Midazolam 2 mg alone was administered 2 days prior to initiating ensitrelvir administration (on day −2) and midazolam was coadministered on day 6 with placebo or ensitrelvir in the fasted state to participants following once-daily doses for 5 days of placebo (days 1 to 5) or ensitrelvir (750 mg on day 1 and 250 mg on days 2–5).
Blood and urine samples were collected and analyzed at several time points to determine the concentration of ensitrelvir and midazolam. For single-dose administration, blood samples were collected predose (0 h) and 0.5, 1, 1.5, 2, 2.5, 3, 4, 6, 8, 12, 24, 36, 48, 60, 72, 96, 120, and 144 h postdose on day 1 at 20 mg (cohort A); predose (0 h) and 0.5, 1, 1.5, 2, 2.5, 3, 4, 6, 8, 12, 24, 36, 48, 60, 72, 96, 120, 144, 192, and 336 h postdose on day 1 at 70, 500, 1,000, and 2,000 mg (cohorts B, D, E, and J); and predose (0 h) and 0.5, 1, 1.5, 2, 2.5, 3, 4, 6, 8, 12, 24, 36, 48, 60, 72, 96, 120, and 144, 192, and 336 h postdose on days 1 and 15 at 250 mg (cohort C). Urine samples were collected at 0 to 24, 24 to 48, 48 to 72, 72 to 96, 96 to 120, and 120 to 144 h postdose on day 1 at 20, 70, 500, and 1,000 mg (cohorts A, B, D, and E); and 0 to 24, 24 to 48, 48 to 72, 72 to 96, 96 to 120, and 120 to 144 h postdose on days 1 and 15 at 250 mg (cohort C). For multiple-dose administration, blood samples were collected predose (0 h) and 0.5, 1, 1.5, 2, 2.5, 3, 4, 6, 8, and 12 h postdose on day 1; predose (0 h) on days 2 to 4; and predose (0 h) and 0.5, 1, 1.5, 2, 2.5, 3, 4, 6, 8, 12, and 24 h postdose on day 5 to evaluate the pharmacokinetics of ensitrelvir. Blood samples were also collected predose (0 h) and 0.5, 1, 2, 3, 4, 5, 6, 8, 12, and 24 h postdose on […] to evaluate the pharmacokinetics of midazolam.
Pharmacokinetic parameters were estimated based on the plasma concentration time data for ensitrelvir and midazolam by noncompartmental analysis (Phoenix WinNonlin version 6.2.1, Certara USA Inc., Princeton, NJ, USA). Dose proportionality assessments included the Cmax, area under the plasma concentration-time curve (AUC0-last, AUC0-inf, and AUC0-τ), and dose independency included t1/2,z, terminal elimination rate constant (λz), MRT, CL/F, and Vz/F. Urine pharmacokinetic parameters for ensitrelvir were calculated based on the urine concentrations of ensitrelvir and urine volume with noncompartmental analysis. Feu0-144 was calculated after single-dose administration. Additionally, renal clearance (CLR) was calculated using the cumulative amount of the drug excreted in urine and AUC in plasma for ensitrelvir. […]

CYP3A = assay: Drug-drug interaction with midazolam (cohort G); conditions: ensitrelvir 750/250 mg, from increase in AUC0-inf of midazolam
[2] = Cohort C/250 mg single dose, Fasted
[3] = Cohort C/250 mg single dose, Fed

Q: For `Cn1cnc(Cn2c(=O)[nH]/c(=N\c3cc4cn(C)nc4cc3Cl)n(Cc3cc(F)c(F)cc3F)c2=O)n1` [Ensitrelvir, ensitrelvir fumaric acid], which “reduction of Cmax by food intake” value ([1]; 250 mg single dose, fed vs fasted) is on record?
A: The value was 15%.

Q: And the “effect of food intake on AUC” value ([1]; 250 mg single dose, high-fat/high-calorie meal)?
A: The value was “did not impact; also recorded: did not affect”.

Q: What about the “AUC0-inf, GLS mean (90% CI) ratio (fed/fasted)” value ([1]; Cohort C/250 mg single dose) of the same molecule?
A: Its value is 1.0460 (1.0047/1.0891).

Q: What about the “AUC0-last, GLS mean (90% CI) ratio (fed/fasted)” value ([1]; Cohort C/250 mg single dose) of the same molecule?
A: The value was 1.0470 (1.0061/1.0895).

Q: And the “Cmax, GLS mean (90% CI) ratio (fed/fasted)” value ([1]; Cohort C/250 mg single dose)?
A: Its value is 0.8508 (0.7507/0.9644).

Q: And the “t1/2,z, GLS mean (90% CI) ratio (fed/fasted)” value ([1]; Cohort C/250 mg single dose)?
A: Its value is 0.9385 (0.8893/0.9905).

Q: What about the Tmax ([1]; 250 mg single dose, fasted state) of the same molecule?
A: The Tmax was 2.5 h.

Q: And the Tmax ([1]; 250 mg single dose, fed state)?
A: The Tmax was 8 h.

Q: What about the AUC(0-inf) [1, 2] of the same molecule?
A: Its AUC(0-inf) is 914 µg·h/mL.

Q: What about the AUC(0-t) [1, 2] of the same molecule?
A: Its AUC(0-t) is 907 µg·h/mL.

Q: What about the Cmax [1, 2] of the same molecule?
A: The Cmax was 15200 ng/mL.

Q: And the half-life [1, 2]?
A: Its half-life is 43.1 h.

Q: And the AUC(0-inf) [1, 3]?
A: Its AUC(0-inf) is 956 µg·h/mL.

Q: What about the AUC(0-t) [1, 3] of the same molecule?
A: The AUC(0-t) was 949 µg·h/mL.

Q: And the Cmax [1, 3]?
A: Its Cmax is 13000 ng/mL.

Q: What about the half-life [1, 3] of the same molecule?
A: Its half-life is 40.5 h.

Q: What about the CYP3A inhibition classification (CYP3A) of the same molecule?
A: The CYP3A inhibition classification was “strong CYP3A inhibitor”.
